# Measurements published in PubChem BioAssay (NCI).
#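 Exposure lasted 48 hours, with cells grown in 96-well plates and compounds tested at five concentrations. GI50 marks 50% less growth. TGI is the concentration that stops growth completely.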
# Tests used:
# Assay in all cases: DTP human tumour cell line panel, 48 h
# RXF 393 renal = test system: RXF 393 renal
# 786-0 renal = test system: 786-0 renal
# SF-295 CNS = test system: SF-295 CNS
# NCI-H460 lung = test system: NCI-H460 lung
# MOLT-4 leukemia = test system: MOLT-4 leukemia
# SN12C renal = test system: SN12C renal
# CCRF-CEM leukemia = test system: CCRF-CEM leukemia
# SW-620 colon = test system: SW-620 colon
# SK-MEL-2 melanoma = test system: SK-MEL-2 melanoma
# PC-3 prostate = test system: PC-3 prostate
Compound,GI50 (RXF 393 renal),TGI (RXF 393 renal),GI50 (786-0 renal),TGI (786-0 renal),GI50 (SF-295 CNS),TGI (SF-295 CNS),GI50 (NCI-H460 lung),TGI (NCI-H460 lung),GI50 (MOLT-4 leukemia),TGI (MOLT-4 leukemia),GI50 (SN12C renal),TGI (SN12C renal),GI50 (CCRF-CEM leukemia),TGI (CCRF-CEM leukemia),GI50 (SW-620 colon),TGI (SW-620 colon),GI50 (SK-MEL-2 melanoma),TGI (SK-MEL-2 melanoma),GI50 (PC-3 prostate),TGI (PC-3 prostate)
CCOC(=O)c1ccc(N2NC(=O)/C(=C/c3ccc([N+](=O)[O-])o3)C2=O)cc1,11.3 µM,26 µM,19.1 µM,37.3 µM,> 39 µM,> 56.1 µM,> 43.3 µM,> 60.7 µM,11.3 µM,53.1 µM,27.5 µM,> 55.8 µM,2 µM,> 61.6 µM,4.3 µM,9.38 µM,> 40.6 µM,> 55.4 µM,21.3 µM,55.8 µM
CC(C)(C)c1cc(C[P+](c2ccccc2)(c2ccccc2)c2ccccc2)cc(C(C)(C)C)c1O,1 µM,4.67 µM,1.81 µM,9.73 µM,0.547 µM,6.79 µM,0.413 µM,2.59 µM,1.41 µM,5.19 µM,0.404 µM,2.31 µM,0.545 µM,5.33 µM,0.528 µM,12 µM,0.257 µM,0.585 µM,0.278 µM,1.91 µM
CCc1cc2c(c(OCC(F)(F)F)c(C(=O)NC3CCN(C(=O)CO)CC3)n2C)c(=O)n1CC(=O)c1ccccc1,11.2 µM,42.7 µM,33.4 µM,> 100 µM,34.7 µM,> 100 µM,> 57.8 µM,> 100 µM,37.2 µM,> 100 µM,> 100 µM,> 100 µM,38.5 µM,> 100 µM,> 59.4 µM,> 100 µM,56.1 µM,> 100 µM,> 73.5 µM,> 100 µM
COc1ccc(C(=O)/C=C/c2cc(-c3ccc(OC)c(OC)c3)n[nH]2)cc1OC,1.45 µM,2.98 µM,1.81 µM,5.14 µM,1.6 µM,5.05 µM,0.606 µM,4.36 µM,2.2 µM,> 100 µM,1.92 µM,4.82 µM,0.364 µM,5.52 µM,1.5 µM,5.41 µM,2.46 µM,5.17 µM,1.98 µM,35.7 µM
COc1cccc(S(=O)(=O)NC2=NCCN2C(=S)SN2CCn3c2nsc3=S)c1,16.8 µM,46.9 µM,31.6 µM,> 100 µM,> 100 µM,> 100 µM,58.3 µM,> 100 µM,32.5 µM,> 100 µM,36.1 µM,> 100 µM,32.1 µM,> 100 µM,34 µM,> 100 µM,68.2 µM,> 100 µM,36.2 µM,> 100 µM
Nc1nc(-c2cccnc2)cc(-c2cc(-c3cccnc3)nc(N)n2)n1,–,> 100 µM,–,> 100 µM,–,> 100 µM,–,> 100 µM,–,> 100 µM,–,> 100 µM,–,> 100 µM,–,> 100 µM,–,> 100 µM,–,> 100 µM
COc1cccc2c1C(=O)c1c(O)c3c(c(O)c1C2=O)C[C@](O)(C(=O)CO)C[C@H]3O[C@@H]1C[C@@H](NC(=O)CCCN(C)C2(c3ccc(F)cc3)CC3CCC2C3)[C@H](O)[C@@H](C)O1 (stereo not given in full),0.696 µM,1.41 µM,0.801 µM,1.57 µM,0.805 µM,1.6 µM,0.545 µM,1.22 µM,0.382 µM,1.9 µM,5.13 µM,14 µM,0.927 µM,3.29 µM,0.641 µM,1.49 µM,1.06 µM,2.15 µM,1.18 µM,3.11 µM
